In series [1] the target is T1, Steroid sulphatase (Homo sapiens, UniProt P08842).
T1 sequence (P08842 22-583): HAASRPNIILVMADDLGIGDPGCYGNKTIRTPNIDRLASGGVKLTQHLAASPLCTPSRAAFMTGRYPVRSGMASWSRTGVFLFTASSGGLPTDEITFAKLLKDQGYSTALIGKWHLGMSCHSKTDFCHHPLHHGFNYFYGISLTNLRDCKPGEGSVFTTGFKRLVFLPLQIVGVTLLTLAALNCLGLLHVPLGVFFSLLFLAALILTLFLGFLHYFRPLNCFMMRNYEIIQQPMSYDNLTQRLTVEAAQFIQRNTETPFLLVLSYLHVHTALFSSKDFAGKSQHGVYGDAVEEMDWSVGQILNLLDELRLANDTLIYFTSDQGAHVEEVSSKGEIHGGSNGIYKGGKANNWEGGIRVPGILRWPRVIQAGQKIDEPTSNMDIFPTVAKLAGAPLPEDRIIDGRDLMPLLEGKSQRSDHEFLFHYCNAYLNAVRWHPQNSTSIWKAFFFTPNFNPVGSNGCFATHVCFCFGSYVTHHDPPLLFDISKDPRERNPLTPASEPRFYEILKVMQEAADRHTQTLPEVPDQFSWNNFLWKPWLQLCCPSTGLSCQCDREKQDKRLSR
Conditions: cited from earlier work.

Series [2] relates to rats. To be noted: rat, in vivo, cited from earlier work.
For series [3] the following is noted: cited from earlier work.
For series [4], the target named is T2, rat liver E1-STS (Rattus norvegicus, UniProt P15589).
T2 construct: from tissue; host or cells: rat liver
T2 sequence (P15589 20-577): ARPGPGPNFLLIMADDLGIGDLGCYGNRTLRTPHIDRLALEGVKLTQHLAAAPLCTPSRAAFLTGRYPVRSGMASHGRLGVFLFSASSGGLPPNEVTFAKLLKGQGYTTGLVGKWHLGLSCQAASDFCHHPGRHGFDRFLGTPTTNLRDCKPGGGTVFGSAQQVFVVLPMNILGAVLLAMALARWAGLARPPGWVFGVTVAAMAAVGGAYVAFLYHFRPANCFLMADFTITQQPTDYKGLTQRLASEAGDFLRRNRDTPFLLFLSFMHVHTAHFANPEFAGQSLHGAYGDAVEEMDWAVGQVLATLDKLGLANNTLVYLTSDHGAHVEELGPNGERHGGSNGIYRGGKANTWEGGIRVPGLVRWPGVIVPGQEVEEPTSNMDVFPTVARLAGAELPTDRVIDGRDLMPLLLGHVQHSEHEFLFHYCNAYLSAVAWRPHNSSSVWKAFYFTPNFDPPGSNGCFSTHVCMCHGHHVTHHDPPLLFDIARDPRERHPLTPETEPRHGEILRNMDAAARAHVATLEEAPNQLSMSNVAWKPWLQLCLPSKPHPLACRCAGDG
Conditions: administered orally or subcutaneously; cited from earlier work.

Series [5] addresses T3, rat liver DHEA-STS (Rattus norvegicus, UniProt P15589).
T3 construct: rat liver E1-STS (99%) and DHEA-STS (99%) activities; from tissue; host or cells: rat liver
T3 sequence (P15589 20-577): T2 sequence (P15589 20-577)
To be noted: administered orally or subcutaneously; cited from earlier work.

The target in series [6] is T4, E1-STS (Homo sapiens, UniProt P08842).
T4 construct: endogenous in cells; host or cells: MCF-7 cells
T4 sequence (P08842 22-583): T1 sequence (P08842 22-583)
Conditions: intact MCF-7 cells, 0.1 nM; cited from earlier work.

The target of series [7] is T5, Aromatase (Homo sapiens, UniProt P11511).
T5 construct: Aromatase activity is measured in JEG3 choriocarcinoma cells, obtained from the ATCC; host or cells: JEG3 choriocarcinoma cells
T5 sequence (P11511 1-503): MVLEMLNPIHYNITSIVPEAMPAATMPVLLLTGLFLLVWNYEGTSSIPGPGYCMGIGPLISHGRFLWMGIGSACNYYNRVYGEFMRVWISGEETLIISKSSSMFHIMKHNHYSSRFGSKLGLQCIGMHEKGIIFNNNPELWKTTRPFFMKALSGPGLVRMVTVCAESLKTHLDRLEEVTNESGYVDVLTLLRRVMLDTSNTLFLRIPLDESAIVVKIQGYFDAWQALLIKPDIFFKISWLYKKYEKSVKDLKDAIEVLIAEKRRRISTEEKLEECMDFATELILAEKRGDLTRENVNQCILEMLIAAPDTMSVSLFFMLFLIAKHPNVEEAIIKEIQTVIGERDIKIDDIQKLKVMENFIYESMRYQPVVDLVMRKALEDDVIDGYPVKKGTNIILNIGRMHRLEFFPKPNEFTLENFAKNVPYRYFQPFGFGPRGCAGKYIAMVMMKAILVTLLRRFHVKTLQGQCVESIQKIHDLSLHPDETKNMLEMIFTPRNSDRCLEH
Description: Aromatase activity in intact JEG3 choriocarcinoma cells (Protocol 6). It is filed as cell-based.

The target of series [8] is T1, Steroid sulphatase. Description: Inhibition of steroid sulphatase activity in intact JEG3 cells (Protocol 1). It is filed as cell-based. Also noted: host or cells: JEG3 choriocarcinoma cells. To be noted: read-out: JEG3 cells IC50 Sulfatase. On the procedure: Assay for Determining STS Activity Using Cancer Cells
Inhibition of Steroid Sulphatase Activity in JEG3 Cells
Steroid sulphatase activity is measured in vitro using intact JEG3 choriocarcinoma cells. This cell line may be used to study the control of human breast cancer cell growth.
Cells are maintained in Minimal Essential Medium (MEM) (Flow Laboratories, Irvine, Scotland) containing 20 mM HEPES, 5% foetal bovine serum, 2 mM glutamine, non-essential amino acids and 0.075% sodium bicarbonate. Up to 30 replicate 25 cm2 tissue culture flasks are seeded with approximately 1×10^5 cells/flask using the above medium. Cells are grown to 80% confluency and the medium is changed every third day.
Intact monolayers of JEG3 cells in triplicate 25 cm^2 tissue culture flasks are washed with Earle's Balanced Salt Solution (EBSS from ICN Flow, High Wycombe, U.K.) and incubated for 3-4 hours at 37° C. with 5 pmol (7×10^5 dpm) [6,7-3H]oestrone-3-sulphate (specific activity 60 Ci/mmol from New England Nuclear, Boston, Mass., U.S.A.) in serum-free MEM (2.5 ml) together with oestrone-3-sulphamate (11 concentrations: 0; 1 fM; 0.01 pM; 0.1 pM; 1 pM; 0.01 nM; 0.1 nM; 1 nM; 0.01 mM; 0.1 mM; 1 mM). […] A portion (2 ml) of the organic phase is removed, evaporated and the 3H and 14C content of the residue determined by scintillation spectrometry. […]

Where two headings read alike, the source gives them in different places.

As a reminder, the melting point is the temperature, or range, at which the solid turns liquid. What is called IC50 is the concentration at which inhibition is half-maximal.

Turning to `COc1ccc(C(c2ccc(OC)c(O)c2)n2cncn2)cc1O`, the melting point lay within 217.5 to 219 °C.

As for `COc1cc2c(cc1OS(N)(=O)=O)CC[C@@H]1[C@@H]2CC[C@]2(C)C(=O)CC[C@@H]12` [2-methoxyoestrone-3-O-sulphamate], the “potency as steroid sulphatase inhibitor relative to EMATE” value in series [1] is recorded as “equipotent with EMATE”. Also, the oestrogenicity result in series [2] is on record as “devoid of oestrogenicity”.

With `C[C@]12CC[C@@H]3c4ccc(OS(=O)(=O)O)cc4CC[C@H]3[C@@H]1CCC2=O` [E1S, oestrone sulphate], the half-life in blood in series [3] was 10 to 12 h.

Regarding `CC12CCC3c4ccc(OS(N)(=O)=O)cc4CCC3C1CCC2=O` (centres unmarked) [EMATE, oestrone-3-sulphamate], in [2] (po), the “oral uterotrophic activity relative to estradiol” value was 100 times. The “inhibition of rat liver E1-STS activity” value in [4] is given as 99%. Besides, the “inhibition of rat liver DHEA-STS activity” value in series [5] is recorded as 99%. Further, the “inhibition of E1-STS activity” value in series [6] is “more than 99%”.

Take `N#Cc1ccc(N(Cc2cccc(OS(N)(=O)=O)c2)n2cnnc2)cc1` [STX334, 4-[(3-O-Sulfamoylbenzyl)(4-cyanophenyl)amino]-4H-[1,2,4]triazole]: the IC50 is 39 nM in series [7] (intact JEG3 cells) and 5130 nM in series [8].

Take `N#Cc1ccc(N(Cc2ccc(Br)c(OS(N)(=O)=O)c2)n2cnnc2)cc1` [STX1217, 4-[(4-Bromo-3-O-sulfamoylbenzyl)(4cyanophenyl)amino]-4H-[1,2,4]triazole]: in series [7], the IC50 was 3.9 nM.

The values above are taken from patent US8148415B2, “Sulfamic acid ester compounds useful in the inhibition of steroid sulphatase activity and aromatase activity” (Sterix Limited, priority 2004, dated 2012).
